Results: patent publication EP0565674B1, “METHOD FOR MEMORY ENHANCEMENT AND QUALITY OF LIFE IMPROVEMENT” (CITY OF HOPE, priority 1991, dated 1993)
Structures can show the parent of a compound that is named as a salt.

Experiments:
CD-1 male mice [1] = test: T-maze footshock active avoidance training (FAAT), retention after 1 week, well-trained mice, prevention of DMSO-induced amnesia; conditions: for trials to criterion compared with DMSO alone / saline alone: 3.5X10^-10 mol icv 2-3 min after FAAT, in DMSO, retention tested one week later, groups of 15 mice
Method: (§1) Test Animals. After 1 week in the laboratory, CD-1 male mice obtained from Charles River Breeding Laboratories were caged individually 24-48 hr prior to training and remained singly housed until retention was tested 1 week later. Animal rooms were on a 12-hr light/dark cycle with lights going on at the hour of 0600.
(§2) With the exception of pregnenolone sulfate, all of the substances were dissolved in appropriate amounts of pure DMSO and 2 µl of DMSO alone or containing test substance was injected icv into each mouse after training. Pregnenolone sulfate was dissolved in DMSO and diluted with physiological saline to a final concentration of 1% DMSO or less in saline, and the results of, injections of 2 µl of solutions containing pregnenolone sulfate were compared with those obtained with 2 µl of such saline solutions alone.
(§3) Apparatus, Training and Testing Procedures. The T-maze used for footshock active avoidance training (FAAT) consisted of a black plastic alley (46 cm long) with a start box at one end and two goal boxes (17.5 cm long) at the other. The start box was separated from the alley by a plastic guillotine door that prevented movement down the alley until training began. The alley was 12.5 cm deep and 9.8 cm wide. An electrifiable stainless steel rod floor ran throughout the maze.
(§4) Mice were not permitted to explore the maze before training. A block of training trials began when a mouse was placed in the start box. The guillotine door was raised and a muffled doorbell-type buzzer sounded simultaneously; footshock was 5 sec later through a scrambled grid floor shocker (Colbourn Instruments, model E13-08). The goal box first entered during the first set of trials was designated as "incorrect", and footshock was continued until the mouse entered the other goal box, which in all subsequent trials was designated "correct" for the particular mouse. At the end of each group of trials, the mouse was removed to its home cage.
As training proceeded, a mouse made one of two types of responses. A response latency longer than 5 sec was classed as an escape from the footshock. A response latency less than or equal to 5 sec was considered an avoidance, since the mouse avoided receiving a footshock. Two exclusion criteria were applied to reduce learning variability among mice, as follows. On the first training trials, mice with escape latencies greater than 20 sec were discarded. Mice not having at least one errorless escape latency between 1.5 and 3.5 sec on training trials 3 or 4 were excluded. The total exclusions were fewer than 15%. Mice received five such training trials. One week after training and post-trial administration of vehicle alone or vehicle containing test substance, T-maze training was resumed until each mouse made five avoidance responses in six consecutive training trials (trials to criterion). The recall score was taken to be the percentage of tested mice remembering original training.
In these instances, training was performed under conditions that tend to maximize learning (sound intensity, 65 decibels; footshock current, 0.35 mA; intertrial interval, 45 s).
Surgical Procedure in Preparation for Intracerebroventricular (icv) Administration of Substances. Icv injection was the mode of administration of test substances because this eliminates problems of differential penetration of the blood-brain barrier. The following procedure was performed 24-48 hr prior to training.

CD-1 male mice [2] = test: T-maze footshock active avoidance training (FAAT), retention after 1 week, weakly trained mice, memory enhancement
Method: as §1, §2, §3, §4
As training proceeded, a mouse made one of two types of responses. A response latency longer than 5 sec was classed as an escape from the footshock. […]

Row | Compound | trials to criterion compared with DMSO alone / saline alone (CD-1 male mice [1]) | also measured
1 | C[C@]12CC[C@H](OS(=O)(=O)O)CC1=CC[C@@H]1[C@@H]2CC[C@]2(C)C(=O)CC[C@@H]12 [DHEAS, dehydroepiandrosterone sulfate] | significantly fewer trials to criterion than mice receiving DMSO alone | 
2 | CC(=O)C1CCC2C3CC=C4CC(OS(=O)(=O)O)CCC4(C)C3CCC12C (stereo not drawn) [pregnenolone sulfate, 5-pregnen-3β-ol-20-one sulfate, sodium salt] |  | potency relative to DHEA (CD-1 male mice [2]; memory enhancement in mice): ~1000 times; potency relative to pregnenolone (CD-1 male mice [2]; memory enhancement in mice): approximately 10 times
3 | C[C@]12CCC(=O)C=C1CC[C@@H]1[C@@H]2CC[C@]2(C)C(=O)CC[C@@H]12 [androstenedione, 4,androsten-3,17-dione] | significantly fewer trials to criterion than mice receiving DMSO alone | 
4 | C[C@]12CC[C@H](O)CC1=CC[C@@H]1[C@@H]2CC[C@]2(C)C(=O)CC[C@@H]12 [DHEA, 5-androsten-3β-ol-17-one] | significantly fewer trials to criterion than mice receiving DMSO alone | 
5 | CC(=O)[C@H]1CC[C@H]2[C@@H]3CC=C4C[C@@H](O)CC[C@]4(C)[C@H]3CC[C@]12C [pregnenolone, 5-pregnen-3β-ol-20-one] | significantly fewer trials to criterion than mice receiving DMSO alone | potency on a molar basis relative to the other two substances tested (DHEA, testosterone) (CD-1 male mice [1]; from dose-response curves): at least 100 times; trials to criterion (CD-1 male mice [2]; weakly trained mice, 3.5X10^-15 mol per mouse icv, p < 0.05 vs vehicle controls (9.30±0.47), mean ± SEM): 7.70±0.55
6 | CC(=O)[C@H]1CC[C@H]2[C@@H]3CCC4=CC(=O)CC[C@]4(C)[C@H]3CC[C@]12C [progesterone, 4-pregnen-3,20-dione] | significantly different from those obtained with DMSO alone and significantly greater than those receiving saline alone | 
7 | C[C@]12CCC(=O)C[C@@H]1CC[C@@H]1[C@@H]2CC[C@]2(C)[C@@H](O)CC[C@@H]12 [dihydrotestosterone, 5α-androstan-17β-ol-3-one] | significantly fewer trials to criterion than mice receiving DMSO alone | 
8 | C[C@]12CCC(=O)C=C1CC[C@@H]1[C@@H]2[C@@H](O)C[C@]2(C=O)[C@@H](C(=O)CO)CC[C@@H]12 [aldosterone, 4-pregnen-11β,21-diol-3,18,20-trione] | significantly fewer trials to criterion than mice receiving DMSO alone | 
9 | C[C@]12CC[C@H]3[C@@H](CCC4=CC(=O)CC[C@@]43C)[C@@H]1CC[C@@H]2O [testosterone, 4-androsten-17β-ol-3-one] | significantly fewer trials to criterion than mice receiving DMSO alone | 
10 | C[C@]12CC[C@@H]3c4ccc(O)cc4CC[C@H]3[C@@H]1CCC2=O [estrone, 1,3,5(10)-estratrien-3-ol-17-one] | significantly different from those obtained with DMSO alone and significantly greater than those receiving saline alone | 
11 | C[C@]12CC[C@@H]3c4ccc(O)cc4CC[C@H]3[C@@H]1CC[C@@H]2O [estradiol, 1,3,5(10)-estratrien-3,17β-diol] | significantly different from those obtained with DMSO alone and significantly greater than those receiving saline alone | 
